Data from PubChem BioAssay (NCI).
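Each compound was tested at five concentrations against cells in 96-well plates for 48 hours. GI50 marks 50% less growth. TGI is the concentration that stops growth completely.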

Columns and labels:
Test in all cases: growth of human tumour cells (NCI), 48 h
[1] = system: HL-60(TB) leukemia
[2] = system: SK-MEL-5 melanoma
[3] = system: COLO 205 colon
[4] = system: NCI/ADR-RES ovarian
[5] = system: HOP-92 NSCLC
[6] = system: RXF 393 renal
[7] = system: SF-539 CNS
[8] = system: MOLT-4 leukemia

O=C(Oc1ccc([N+](=O)[O-])cc1)N1CCC(C(O)(c2ccc3c(c2)OCO3)c2ccc3c(c2)OCO3)CC1
GI50 [1]: > 100 µM | TGI [1]: > 100 µM | GI50 [2]: > 100 µM | TGI [2]: > 100 µM | GI50 [3]: > 100 µM | TGI [3]: > 100 µM | GI50 [4]: > 100 µM | TGI [4]: > 100 µM | GI50 [5]: > 52.3 µM | TGI [5]: > 100 µM | GI50 [6]: > 100 µM | TGI [6]: > 100 µM | GI50 [7]: > 100 µM | TGI [7]: > 100 µM | GI50 [8]: > 100 µM | TGI [8]: > 100 µM

N#Cc1ccc(-n2cnc(NC(=O)[C@H]3CCN(C#N)C3)c2)cc1
GI50 [1]: 0.51 µM | TGI [1]: 2.86 µM | GI50 [2]: 2.08 µM | TGI [2]: 6.13 µM | GI50 [3]: 0.372 µM | TGI [3]: 1.93 µM | GI50 [4]: 2.41 µM | TGI [4]: > 86.8 µM | GI50 [5]: 1.92 µM | TGI [5]: 6.98 µM | GI50 [6]: 0.374 µM | TGI [6]: 2.6 µM | GI50 [7]: 1.18 µM | TGI [7]: 5.95 µM | GI50 [8]: 2.15 µM | TGI [8]: > 29.8 µM

COc1ccc2[nH]cc(/C=C3\C(=O)Nc4ccccc43)c2c1
GI50 [1]: 1.78 µM | TGI [1]: 4.26 µM | GI50 [2]: 3.43 µM | TGI [2]: 15.2 µM | GI50 [3]: 3.86 µM | TGI [3]: 23.2 µM | GI50 [4]: 4.97 µM | TGI [4]: 37 µM | GI50 [5]: 3.84 µM | TGI [5]: 13.6 µM | GI50 [6]: 2.95 µM | TGI [6]: 13.3 µM | GI50 [7]: 5.43 µM | TGI [7]: 18.1 µM | GI50 [8]: 2.33 µM | TGI [8]: 7.4 µM

CCOC(=O)C(=Cc1ccc(Br)cc1)C(=O)OCC
GI50 [1]: 1.63 µM | TGI [1]: 7.53 µM | GI50 [2]: 1.65 µM | TGI [2]: 3.12 µM | GI50 [3]: 1.89 µM | TGI [3]: 3.94 µM | GI50 [4]: 2.78 µM | TGI [4]: > 20.4 µM | GI50 [5]: 1.45 µM | TGI [5]: 4.8 µM | GI50 [6]: 1.15 µM | TGI [6]: 2.55 µM | GI50 [7]: 1.72 µM | TGI [7]: 3.13 µM | GI50 [8]: 2.94 µM | TGI [8]: 20.2 µM

O=S(=O)(Nc1ccc(Cl)c(C(F)(F)F)c1)c1ccc(-c2cnc(C3CC3)o2)cc1
GI50 [1]: 0.261 µM | TGI [1]: 1.49 µM | GI50 [2]: 0.296 µM | TGI [2]: 1.75 µM | GI50 [3]: 0.419 µM | TGI [3]: 2.33 µM | GI50 [4]: 0.163 µM | TGI [4]: 2.43 µM | GI50 [5]: 1.04 µM | TGI [5]: 4.16 µM | GI50 [6]: 0.381 µM | TGI [6]: 1.66 µM | GI50 [7]: 0.452 µM | TGI [7]: 2.16 µM | GI50 [8]: 0.622 µM | TGI [8]: 14.1 µM

COC(=O)/C(=C/N1CCN(C(=O)c2ccco2)C1=S)C(C)=O
GI50 [1]: 7.47 µM | TGI [1]: 71.5 µM | GI50 [2]: 5.26 µM | TGI [2]: 17.4 µM | GI50 [3]: 12.6 µM | TGI [3]: 35.8 µM | GI50 [4]: 22.2 µM | TGI [4]: 56.8 µM | GI50 [5]: 20.8 µM | TGI [5]: 75.4 µM | GI50 [6]: 4.41 µM | TGI [6]: 9.49 µM | GI50 [8]: 20.8 µM | TGI [8]: > 100 µM

C[C@]12CC[C@@H]3c4ccc(O)cc4CC[C@H]3[C@@H]1CC[C@@H]2NS(=O)(=O)c1cccc(Br)c1
GI50 [2]: 1.77 µM | TGI [2]: 3.31 µM | GI50 [3]: 1.89 µM | TGI [3]: 3.38 µM | GI50 [4]: 3.14 µM | TGI [4]: 13.6 µM | GI50 [5]: 1.85 µM | TGI [5]: 6.44 µM | GI50 [6]: 2.15 µM | TGI [6]: 6.2 µM | GI50 [7]: 2.6 µM | TGI [7]: 8.8 µM | GI50 [8]: 2.59 µM | TGI [8]: 12.7 µM
